The source made the active and inactive calls. No cut-off for these calls is given here.
Experiments:
[1] = biological target: Programmed cell death 1 ligand 1 (Homo sapiens) (UniProt Q9NZQ7); assay: Inhibition of PDL1 in human […] cells assessed as recovery of mouse splenocyte proliferation at 100 nM by CFSE-based FACS analysis relative to control; format: cell-based
[2] = biological target: Programmed cell death protein 1 (Homo sapiens) (UniProt Q15116); assay: Binding affinity to biotinylated recombinant human C-terminal FC -tagged PD1 (25 to 167 residues) at 0.3 to 300 uM by SPR analysis
Sequence of Programmed cell death protein 1 (Homo sapiens) (Q15116 whole entry, the tested form may be a part): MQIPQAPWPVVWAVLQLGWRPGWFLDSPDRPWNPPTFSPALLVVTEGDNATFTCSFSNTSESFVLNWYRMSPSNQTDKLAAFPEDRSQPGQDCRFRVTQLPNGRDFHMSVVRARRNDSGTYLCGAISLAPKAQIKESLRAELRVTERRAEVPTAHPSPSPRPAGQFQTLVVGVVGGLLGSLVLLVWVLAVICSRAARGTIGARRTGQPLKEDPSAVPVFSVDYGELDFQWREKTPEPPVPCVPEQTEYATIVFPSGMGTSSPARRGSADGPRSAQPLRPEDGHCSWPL

[3] = biological target: Programmed cell death 1 ligand 1 (Mus musculus) (UniProt Q9EP73); assay: Inhibition of recombinant mouse N-terminal PDL1 (19 to 238 residues) assessed as recovery of mouse splenocyte proliferation at 100 nM by CFSE-based FACS analysis relative to control
Sequence of Programmed cell death 1 ligand 1 (Mus musculus) (Q9EP73 whole entry, the tested form may be a part): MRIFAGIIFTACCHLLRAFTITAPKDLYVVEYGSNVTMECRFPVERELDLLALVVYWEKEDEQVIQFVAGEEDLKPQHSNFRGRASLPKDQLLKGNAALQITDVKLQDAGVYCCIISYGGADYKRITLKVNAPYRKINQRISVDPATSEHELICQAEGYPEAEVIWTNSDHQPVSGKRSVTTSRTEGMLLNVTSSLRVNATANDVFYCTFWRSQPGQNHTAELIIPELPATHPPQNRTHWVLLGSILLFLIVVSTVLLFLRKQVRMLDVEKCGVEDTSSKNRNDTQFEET

Sequence of Programmed cell death 1 ligand 1 (Homo sapiens) (Q9NZQ7 whole entry, the tested form may be a part): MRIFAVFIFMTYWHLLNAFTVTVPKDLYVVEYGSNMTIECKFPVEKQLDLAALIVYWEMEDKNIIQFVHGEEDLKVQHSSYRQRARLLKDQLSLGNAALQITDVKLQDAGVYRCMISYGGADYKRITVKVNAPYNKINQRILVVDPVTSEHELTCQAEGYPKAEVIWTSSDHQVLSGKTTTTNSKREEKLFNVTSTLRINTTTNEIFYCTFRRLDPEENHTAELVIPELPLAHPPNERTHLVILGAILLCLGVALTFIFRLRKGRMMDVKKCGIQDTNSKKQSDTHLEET

C[C@@H](O)[C@H](NC(=O)N[C@@H](CC(N)=O)C(=O)NNC(=O)[C@@H](N)CO)C(=O)O
inhibition [1]: 68% | Activity [2]: inactive

NC(=O)C[C@H](N)c1nc([C@@H](N)CO)no1
inhibition [3]: 93% | Activity [2]: inactive

C#CC[C@H](NC(=O)N[C@H](C(=O)O)[C@@H](C)O)c1nc(-c2cnccn2)no1
inhibition [3]: 92% | Activity [2]: inactive

Reference: ChEMBL document CHEMBL4304794
